From US4789587A, “(1,3-dioxolan-2-yl-methyl)-1H-imidazoles as bactericidal and/or fungicidal agents” (IRE-Celltarg, S.A., priority 1986, dated 1988)
Converted amounts (≈) assume the structure as drawn. Read-outs that look alike come from different tables or passages of the source.

Columns and labels:
[1] = tested on: Salmonella typhimurium LT2, strain Demerec; test: minimum inhibiting concentration, microtitration in liquid medium, S. typhimurium; format: cell-based; conditions: Salmonella enterica, read-out: MIC S. typhimurium
Description: (§1) The activity of the new derivatives according to the invention was tested in vitro by determining the minimum inhibiting concentration (MIC) of the molecules and their fungicidal (minimum fungicidal concentration MFC) or bactericidal (minimum bactericidal concentration MBC) activity. MFC and MBC are defined as the minimum dose which kills 99.9% of the organisms contained in the inoculum. Two species of yeasts pathogenic to man were used: Candida albicans ATCCe 10231 and Candida tropicalis ATCC 13803. Two species of bacteria were included in the screening: Staphylococcus aureus ATCC 25923 and Salmonella typhimurium LT2, strain Demerec. The MIC is determined after culturing overnight in a liquid medium, by the microtitration method in dishes containing 96 wells over a concentration range of 100 μM to 0.0008 μM. The inoculum contains 10^5 to 10^6 organisms/ml. The culture media consist on the one hand of RPMI to which 20% of foetal calf serum (inactivated for one hour at 56°) has been added in order to determine the fungistatic activity and Mueller-Hinton agar in order to determine the bacteriostatic power of the newly synthesized molecules on the other. The MFC and MBC for each of these molecules are obtained by subculturing a sample containing 10^3 organisms from each well giving negative results for the growth of the organisms, in a solid medium consisting of YM agar (yeasts) or Mueller-Hinton agar (bacteria) overnight at 37°.

[2] = tested on: Candida tropicalis ATCC 13803; test: minimum fungicidal concentration, subculture on YM agar, C. tropicalis; format: cell-based
Description: as §1

[3] = tested on: Staphylococcus aureus ATCC 25923; test: minimum bactericidal concentration, subculture on Mueller-Hinton agar, S. aureus; format: cell-based
Description: as §1

[4] = tested on: Staphylococcus aureus ATCC 25923; test: minimum inhibiting concentration, microtitration in liquid medium, S. aureus; format: cell-based
Description: as §1

[5] = tested on: Leydig tumor cells from mice (I-10, ATCC No. CCL83); test: in vitro synthesis of steroids: 20α-hydroxy-4-pregnen-3-one secretion by Leydig tumor cells induced by cAMP; format: cell-based; conditions: for 20α-OH-4-pregnen-3-one (1): dibutyryl-cAMP 1×10^-4 M, 3 hours incubation with compound, control 1744, basal 785; for activity at 0.94 µM: Mus musculus, Leydig, read-out: 20α-OH-4-pregnen-3-one (2) % enzyme activity relative to control
Description: (§2) Ketoconazole and its derivatives reduce the plasma levels of testosterone by inhibiting certain enzymes involved in its biogenesis. Progesterone is a key intermediate in the biogenesis of steroid hormones as it leads especially to estradiol in the ovary and to testosterone in the testicles. The inhibiting power of ketoconazole and its derivatives on the enzyme chain for the biogenesis of steroid hormones may be assessed by measuring the conversion of cholesterol into progesterone. A method of determination which enables this property to be quantified is described below.
(§3) Leydig tumor cells from mice (I-10, ATCC No. CCL83) were grown in a HAM's F10 medium to which 15% of horse serum and 2.5% of foetal calf serum were added. These cells have the property of secreting progesterone and a product of reduction of the latter which is no longer metabolized, 20α-hydroxy-4-pregnen-3-one. This secretion of steroids is induced by the addition of cAMP in the form of its dibutyryl ester (N^6, O^2' -dibutyryladenosine 3', 5'-cyclic monophosphate sodium salt monohydrate (Sigma)). The cells are subcultured in 25 cm^2 falcon dishes and maintained under CO2 (10%). When these become confluent (±1 mg/ml proteins) the medium is replaced with fresh medium containing dibutyryl-cAMP (1×10^-4 M). After incubating for 1 hour with the cAMP, the ketoconazole or its derivatives are added (9.4×10^-7 M) to the culture medium. After incubating for a further period of 3 hours, the supernatants are collected and will be used for the analysis of steroids by HPLC. The cells are rinsed with PBS (phosphate buffered saline: NaCl 0.15M, KCl 2.7 mM, Na2 HPO4 -KH2 PO4 3 mM pH 7.4) and after treating with DOC (deoxycholic acid), the determination of proteins is carried out by the Lowry method.
(§4) For the determination of steroids, 2 ml of the culture medium are brought into contact with 5 ml of ether. The tubes are vortexed for 2 minutes. After freezing the aqueous phases in an isopropanol/solid carbon dioxide bath, the ether phase is collected and the ether is evaporated off under a stream of nitrogen at 30° C. The dry extract is then diluted in 150 μl of water and 150 μl of acetonitrile and centrifuged at 13,000 rpm for 10 minutes. 30 μl of the supernatant are injected into HPLC on a 4 mm diameter, 30 cm long μBondapack C18 column (WATERS). The mobile phase consists of 38% of water, 31% acetonitrile and 31% methanol. The flowrate is 2 ml/min and readings are taken at 245 nm.

[6] = tested on: Leydig tumor cells from mice (I-10, ATCC No. CCL83); test: in vitro synthesis of steroids: progesterone secretion by Leydig tumor cells induced by cAMP; format: cell-based; conditions: for Progesterone (1): dibutyryl-cAMP 1×10^-4 M, 3 hours incubation with compound, control 3546, basal 554; for progesterone secretion, % of cAMP-induced control at 0.94 µM: Mus musculus, Leydig, read-out: Progesterone (2) % enzyme activity relative to control
Description: as §2, §3, §4

[7] = tested on: Candida albicans ATCCe 10231; test: minimum fungicidal concentration, subculture on YM agar, C. albicans; format: cell-based
Description: as §1

[8] = tested on: Candida albicans ATCCe 10231; test: minimum inhibiting concentration, microtitration in liquid medium, C. albicans; format: cell-based; conditions: ATCCE10231, RPMI + 20% foetal calf serum, overnight, inoculum 10^5 to 10^6 organisms/ml
Description: as §1

[9] = tested on: Salmonella typhimurium LT2, strain Demerec; test: minimum bactericidal concentration, subculture on Mueller-Hinton agar, S. typhimurium; format: cell-based; conditions: Salmonella enterica, minimum dose which kills 99.9% of the organisms (MBC), overnight at 37°, read-out: MFC S. typhimurium
Description: as §1, with “The MFC and MBC for each of these molecules are obtained by subculturing a sample containing 10^3 organisms from each well giving negative results for the growth of the organisms, in a solid medium consisting of YM agar (yeasts) or Mueller-Hinton agar (bacteria) overnight at 37°.” left out

[10] = tested on: Candida tropicalis ATCC 13803; test: minimum inhibiting concentration, microtitration in liquid medium, C. tropicalis; format: cell-based; conditions: ATCC13803, RPMI + 20% foetal calf serum, overnight, inoculum 10^5 to 10^6 organisms/ml
Description: as §1

[11] = resorption: plasma concentration in rats after gastric administration; format: in vivo; conditions: rat, po, 1000 umol/kg, 100 μmols/0.5 ml of DMSO per 100 g of body weight, Candida tropicalis inhibition zones vs ketoconazole standard curve, read-out: plasma concentration of the antifungal product
Description: 100 μmols/0.5 ml of DMSO per 100 g of body weight of either ketoconazole (reference product) or oleylketoconazole (compound No. 7) are administered to rats by the gastric route. The animals are sacrificed with CO2, 1 h after the administration. Blood is sampled by cardiac puncture and centrifuged for 15 minutes at 2000 rpm to obtain the plasma.
A series of dilutions of the plasma samples are prepared in a 0.9% NaCl solution, diluting twice each time. 10 μl are sampled from each dilution and deposited on Whatman paper discs. The discs are placed in Petri dishes containing 15 ml of casitone agar covered with a layer containing 3 ml of a less dense agar mixed with 0.1 ml of an overnight culture of Candida tropicalis. After incubating overnight the growth inhibition zones around the disks are measured and compared with a standard curve prepared with ketoconazole under the same conditions.

[12] = ATCC25923, read-out: MIC S. aureus
[13] = Mueller-Hinton, overnight, inoculum 10^5 to 10^6 organisms/ml
[14] = ATCC13803, minimum dose which kills 99.9% of the organisms, YM agar, overnight at 37°, read-out: MFC C. tropicalis
[15] = ATCC25923, minimum dose which kills 99.9% of the organisms (MBC), overnight at 37°, read-out: MFC S. aureus
[16] = ATCC25923, Mueller-Hinton, overnight, inoculum 10^5 to 10^6 organisms/ml, read-out: MIC S. aureus
[17] = 9.4×10^-7 M, relative to cells induced by cAMP in the absence of inhibitor
[18] = ATCCE10231, minimum dose which kills 99.9% of the organisms, YM agar, overnight at 37°, read-out: MFC C. albicans

MIC [8]	MIC [10]	MIC [4, 16]	SMILES	20α-OH-4-pregnen-3-one (1) ([5]; 9.4×10^-7 M)	Progesterone (1) ([6]; 9.4×10^-7 M)	MFC [2, 14]	MBC [3, 15]	activity at 0.94 µM [5, 17]	progesterone secretion, % of cAMP-induced control at 0.94 µM [6, 17]	MFC [7, 18]	other results
–	–	–	Clc1ccc(C2(Cn3ccnc3)OCC(COc3ccc(N4CCNCC4)cc3)O2)c(Cl)c1 (stereo not drawn) [Cis-1-[A]-piperazine, reference compound]	1461 ng of steroids/mg of cell prot	2783 ng of steroids/mg of cell prot	–	–	–	–	–	MIC [1]: > 100 µM; MFC ([2]; ATCC13803, read-out: MFC C. tropicalis): 1.58 µM (≈ 0.773 µg/mL); MBC ([3]; ATCC25923, read-out: MFC S. aureus, minimum dose which kills 99.9% of the organisms (MBC), overnight at 37°): 25 µM (≈ 12.2 µg/mL); MIC [4, 12]: 3.65 µM (≈ 1.79 µg/mL); activity at 0.94 µM [5]: 84%; progesterone secretion, % of cAMP-induced control at 0.94 µM [6]: 78%; MFC ([7]; ATCCE10231, read-out: MFC C. albicans): 2.35 µM (≈ 1.15 µg/mL)
0.053 µM	0.049 µM	20.4 µM (≈ 10.9 µg/mL)	CC(=O)N1CCN(c2ccc(OCC3COC(Cn4ccnc4)(c4ccc(Cl)cc4Cl)O3)cc2)CC1 (stereo not shown) [Ketoconazole, reference compound]	1296 ng of steroids/mg of cell prot	1878 ng of steroids/mg of cell prot	4.88 µM (≈ 2.59 µg/mL)	50 µM (≈ 26.6 µg/mL)	74%	53%	0.22 µM (≈ 0.117 µg/mL)	MIC [1, 13]: > 100 µM; MBC [9]: > 100 µM
–	–	–	Clc1ccc(COC(Cn2ccnc2)c2ccc(Cl)cc2Cl)c(Cl)c1 (stereo not shown) [Miconazole, reference compound]	–	–	–	–	–	–	–	MIC [4, 12]: 1.56 µM (≈ 0.649 µg/mL)
0.16 µM	0.119 µM	12 µM (≈ 6.55 µg/mL)	NCC(=O)N1CCN(c2ccc(OCC3COC(Cn4ccnc4)(c4ccc(Cl)cc4Cl)O3)cc2)CC1 (stereo not drawn) [No. 1, Cis-4-[A]-1-(glycyl)piperazine]	–	–	1.3 µM (≈ 0.71 µg/mL)	25 µM (≈ 13.7 µg/mL)	–	–	2.38 µM (≈ 1.3 µg/mL)	–
0.006 µM	0.006 µM	–	CC(N)C(=O)N1CCN(c2ccc(OCC3COC(Cn4ccnc4)(c4ccc(Cl)cc4Cl)O3)cc2)CC1 (stereo not drawn) [No. 2, Cis-4-[A]-1-(alanyl)piperazine]	1299 ng of steroids/mg of cell prot	1939 ng of steroids/mg of cell prot	–	–	74%	55%	–	–
0.48 µM	0.48 µM	–	NCC(=O)NCC(=O)N1CCN(c2ccc(OCC3COC(Cn4ccnc4)(c4ccc(Cl)cc4Cl)O3)cc2)CC1 (stereo not drawn) [No. 3, Cis-4-[A]-1-(N-glycylglycyl)piperazine]	–	–	–	–	–	–	–	–
19.8 µM	15.2 µM	50.8 µM (≈ 29.9 µg/mL)	O=C(O)CCC(=O)N1CCN(c2ccc(OCC3COC(Cn4ccnc4)(c4ccc(Cl)cc4Cl)O3)cc2)CC1 (stereo not drawn) [No. 4, Cis-4-[A]-1(succinyl)piperazine]	–	–	50 µM (≈ 29.5 µg/mL)	> 100 µM	–	–	25 µM (≈ 14.7 µg/mL)	–
25 µM	25 µM	50 µM (≈ 32.3 µg/mL)	O=C(O)CCC(=O)NCC(=O)N1CCN(c2ccc(OCC3COC(Cn4ccnc4)(c4ccc(Cl)cc4Cl)O3)cc2)CC1 (stereo not drawn) [No. 5, Cis-4-[A]-1-(N-succinylglycyl)piperazine]	–	–	–	–	–	–	–	–
3.13 µM	0.78 µM	–	CC(=O)NCC(=O)N1CCN(c2ccc(OCC3COC(Cn4ccnc4)(c4ccc(Cl)cc4Cl)O3)cc2)CC1 (stereo not drawn) [No. 6, Cis-4-[A]-1-(N-acetylglycyl)piperazine]	–	–	12.5 µM (≈ 7.36 µg/mL)	–	–	–	6.25 µM (≈ 3.68 µg/mL)	–
10.2 µM	8.78 µM	> 100 µM	CCCCCCCCC=CCCCCCCCC(=O)N1CCN(c2ccc(OCC3COC(Cn4ccnc4)(c4ccc(Cl)cc4Cl)O3)cc2)CC1 (stereo not shown) [No. 7]	1497 ng of steroids/mg of cell prot	2754 ng of steroids/mg of cell prot	250 µM (≈ 188 µg/mL)	> 100 µM	86%	78%	125 µM (≈ 94.2 µg/mL)	MIC [1, 13]: > 100 µM; concentration at 1 h [11]: 57.3 µM
31.2 µM	53.1 µM	–	CCCCCCCCC=CCCCCCCCC(=O)NCC(=O)N1CCN(c2ccc(OCC3COC(Cn4ccnc4)(c4ccc(Cl)cc4Cl)O3)cc2)CC1 (stereo not drawn) [No. 8, Cis-4-[A]-1-(N-oleylglycyl)piperazine]	–	–	> 100 µM	–	–	–	62.5 µM (≈ 50.7 µg/mL)	–
–	–	–	CC(C)CC(N)C(=O)N1CCN(c2ccc(OCC3COC(Cn4ccnc4)(c4ccc(Cl)cc4Cl)O3)cc2)CC1 (stereo not drawn) [No. 9, Cis-4-[A]-1-(leucyl)piperazine]	1725 ng of steroids/mg of cell prot	2231 ng of steroids/mg of cell prot	–	–	99%	63%	–	–
–	–	–	NC(Cc1ccccc1)C(=O)N1CCN(c2ccc(OCC3COC(Cn4ccnc4)(c4ccc(Cl)cc4Cl)O3)cc2)CC1 (stereo not drawn) [No. 10, Cis-4-[A]-1-(phenylalanyl)piperazine]	605 ng of steroids/mg of cell prot	323 ng of steroids/mg of cell prot	–	–	35%	9%	–	–
